In patent US4458076A, “3-(4-Piperidinyl)-1,2-benzisothiazoles” (Hoechst-Roussel Pharmaceuticals, priority 1983, dated 1984):
Where two headings read alike, the source gives them in different places.

How the values were obtained:
[1] = tested on: phenyl-p-quinone writhing; assay: analgetic activity in the phenyl-p-quinone writhing assay; assay type: in vivo; settings: Mus musculus, sc; subcutaneous dose effecting an approximately 50% inhibition of writhing in mice
Source text: 3-(4-piperidinyl)-1,2-benzisothiazoles of the present invention are useful as analgetics due to their ability to alleviate pain in mammals. […] Exptl. Biol Med., 95 729 (1957)]. Thus, for instance, the subcutaneous dose effecting an approximately 50% inhibition of writhing (ED50) in mice produced in this assay is as shown in Table 2.

[2] = tested on: apomorphine-induced climbing; assay: antipsychotic activity in the climbing mice assay (apomorphine-induced climbing); assay type: in vivo, CK-1 male mice; settings: Mus musculus, ip, inhibition of climbing, compound intraperitoneally 30 minutes prior to apomorphine 1.5 mg/kg subcutaneously, readings at 10, 20 and 30 minutes, linear regression
Description: The subject CK-1 male mice (23-27 grams) are group-housed under standard laboratory conditions. The mice are individually placed in wire mesh stick cages (4"×4" by 10") and are allowed one hour for adaptation and exploration of the new environment.
For evaluation of climbing, 3 readings are taken at 10, 20 and 30 minutes after apomorphine administration according to the following scale: […]
Mice consistently climbing before the injection of apormorphine will be discarded.
With full-developed apomorphine climbing, the animals are hanging on to the cage walls, rather motionless, over longer periods of time. By contrast, climbs due to mere motor stimulation usually only last a few seconds.

Compound | ED50 [1] [mg/kg] | ED50 [2] [mg/kg] | ED50 ([2]; read-out: ANT[…] (ED50 mg/kg)) [mg/kg]
CC(C)=CCN1CCC2(C)c3cc(O)ccc3CC1C2C (centres unmarked) [pentazocine, reference compound] | 1.3 | – | –
Fc1ccc(C(CCCN2CCC(c3nsc4ccccc34)CC2)c2ccc(F)cc2)cc1 [3-{1-[4,4-bis-(4-Fluorophenyl)-1-butyl]-4-piperidinyl}-1,2-benzisothiazole] | – | 3.3 | –
Cc1[nH]c2ccccc2c1CCCN1CCC(c2nsc3ccccc23)CC1 [3-{3-[4-(1,2-benzisothiazol-3-yl)piperidinyl]propyl}-2-methyl indole] | – | 0.17 | –
c1ccc(CCN2CCC(c3nsc4ccccc34)CC2)cc1 [3-{1-[Phenethyl]-4-piperidinyl}-1,2-benzisothiazole] | 0.2 | 7 | –
CCC(=O)O[C@](Cc1ccccc1)(c1ccccc1)[C@H](C)CN(C)C [propoxyphene, reference compound] | 3.9 | – | –
Fc1ccc2c(CCCN3CCC(c4nsc5ccccc45)CC3)noc2c1 [3-[1-(6-Fluoro-1,2-benzisoxazole-3-propyl)-4-piperidinyl]-1,2-benzisothiazole] | 0.3 | 0.17 | –
CN1CCC(c2nsc3ccccc23)CC1 [3-(1-Methyl-4-piperidinyl)-1,2-benzisothiazole] | 0.73 | – | –
O=C(CCCN1CCC(O)(c2ccc(Cl)cc2)CC1)c1ccc(F)cc1 [haloperidol, reference compound] | – | – | 0.11
c1ccc2c(C3CCN(CC4CC4)CC3)nsc2c1 [3-{1-(cyclopropylmethyl)-4-piperidinyl}-1,2-benzisothiazole] | 0.07 | 5.8 | –
O=c1[nH]c2ccccc2n1CCCN1CCC(c2nsc3ccccc23)CC1 [3-[1-(1,3-Dihydro-2-oxo-2H-benzimidazol-1-ylpropyl)-4-piperidinyl]-1,2-benzisothiazole] | – | 0.32 | –
c1ccc2c(C3CCNCC3)nsc2c1 [3-(4-piperidinyl)-1,2-benzisothiazole] | 2.1 | – | –
